From patent EP4631963A1, “PEPTIDE FOR CARTILAGE REGENERATION, AND USES THEREOF” (Caregen Co., Ltd., priority 2022, dated 2024) come the findings set out here.

Where a SMILES comes first, the peptide text is derived from it. Where no end group is shown, it is not given here.

The subject of the data set is C28/I2, human chondrocyte cell line. Put plainly: CCK-8 cytotoxicity assay. The format is cell-based. The settings on record: C28/I2 cells, different concentrations, 3 days, 450 nm; FIG. 1, FIG. 2. Here is the method:
The cytotoxicity of Peptide-1 or Peptide-2 upon addition to human-derived chondrocytes (C28/I2, human chondrocyte cell line) was analyzed using a CCK-8 assay.
Specifically, human-derived chondrocytes were seeded in a 96-well plate at a density of 3 × 10^3 cells/well and cultured in DMEM medium (cat. 11995-065, Gibco) for 24 hours.
For orientation: Formazan colour is commonly taken as a measure of viable cells.

For `CC(C)C[C@H](NC(=O)[C@@H](NC(=O)[C@@H](N)CCCNC(=N)N)[C@@H](C)O)C(=O)N[C@@H](CCC(=O)O)C(=O)O` [Peptide-2, RTLE] (H-RTLE-OH), the “toxicity in human-derived chondrocytes (CCK-8 activity)” value is given as “did not exhibit toxicity”.

In the case of HHEERY [Peptide-1, HHEERY], the “toxicity in human-derived chondrocytes (CCK-8 activity)” value is “did not exhibit toxicity”.
